Results: US12186283B2, “Bismuth-thiol compositions and methods of use” (Microbion Corporation, priority 2018, dated 2025)
Marks after values point to notes of the source that are not given here.

Tests used:
E. coli ATCC 25922 [1] = assay: Broth microdilution MIC, QC organism (Example 13, Table 110); assay type: cell-based, Escherichia coli
Text: MECs were only reported where observed.

[2] = system: beta-hemolytic streptococci (S. pyogenes, S. agalactiae); assay: Broth microdilution MIC (Example 11); assay type: cell-based, Streptococcus pyogenes, Streptococcus agalactiae
[3] = Rat single-dose PK: whole blood BisEDT (bismuth by ICP-MS)
[4] = system: MUCILAIR™ fully differentiated human airway epithelium; assay: Acute toxicity on […] fully differentiated human airway epithelium (LDH, TEER, morphology); assay type: cell-based
Description: Controlled in vitro evaluation of BisEDT, with respect to potential cytotoxicity on fully differentiated human airway epithelium was carried out. Both solubilized and solid (powder/particulate) forms of BisEDT were evaluated for cytotoxicity by Epithelix, a contract research organization (CRO) specializing in this form of cytotoxicity evaluation utilizing a proprietary, in vitro fully differentiated human airway epithelium test system ([…]™). The […]™ system facilitated evaluation of cytotoxicity through both LDH release (from the culture medium side) and trans-epithelial electrical resistance (TEER) from the apical/air-exposed side as well as pre- and post-exposure microscopic examination for morphological changes (FIG. 13).
The assay system used in this study is Epithelix's proprietary technology sold under the trademark […]™ […]™ is a fully differentiated and ready-to-use 3D model of human airway epithelium, constituted with primary human epithelial cells freshly isolated from nasal, tracheal or bronchial biopsies. […]™ (FIG. 24), is not only morphologically and functionally differentiated, but can also be maintained in a homeostatic state for a long period of time (Huang et al., 2009).
[…]™ is composed of basal cells, ciliated cells and mucus cells. The proportion of these various cell types is preserved compared to what one observes in vivo (Huang et al., 2011). Moreover the epithelia are started from de-differentiated cells. The cells undergo a progressive differentiation with time. After 45 days of culture, the epithelia are fully ciliated, secret mucus and are electrically tight (TEER>200 (2 Ω·cm^2). The activity of the main epithelial ionic channels, such as CFTR, EnaC, Na/K ATPase, is preserved and the epithelia is shown to respond in a regulated and vectorial manner to the pro-inflammatory stimulus, TNF-α (Huang et al., 2011). A large panel of cytokines, chemokines and metalloproteinases has been detected in […]™ (e.g. IL-8, IL-6, GM-CSF, MMP-9, GRO-α).
BisEDT (MB-1-B3) was applied on the apical surface of […]™ during 1, 8, 24 and 48 hours (FIG. 13). The effect of 6 concentrations was studied: 0.001, 0.01, 0.1, 1, 10 and 30 uM. […] 30 μl solution at the selected concentration was applied on the apical surface of […]™. The negative control corresponds to the vehicle solution (0 μM) and untreated cultures. The positive control corresponds to 50 μl to 10% Triton X-100 diluted in a buffered saline solution. The study was run in triplicates.
During the study, inserts were maintained in a CO2 incubator (37° C., 5% CO2, 100% humidity). The following end-points were determined: • Tissue integrity monitoring: Trans-Epithelial Electrical Resistance (TEER) measurement (quantitative) at D0, D1 and D2. • Cytotoxicity monitoring: LDH test (quantitative) at D0, D1 and D2. • Morphology: cellular and tissue integrity examined under contrast microscope at DO, D1 and D2.
(§1) Compound BisEDT was applied on the apical surface of […]™. The effect of 5 concentrations after 1, 8, 24 and 48 hours exposure was studied: 0.033, 0.33, 3.33, 33.3, 333 μg/cm^2. The compound was diluted in Dextran powder at the targeted concentration and compressed in order to obtain a tablet. The study was run in triplicates. During the study, inserts were maintained in a CO2 incubator (37° C., 5% CO2, 100% humidity).
as §1, with “of 1 μg/cm^2” for “of 5”, “was studied.” for “was studied: 0.033, 0.33, 3.33, 33.3, 333 μg/cm^2.”

E. coli ATCC 25922 [5] = settings: CLSI established QC range; cited from earlier work
[6] = BisEDT as solid, 1 μg/cm^2, 1 hour exposure
[7] = BisEDT as solid, 0.033 and 0.33 μg/cm^2, all tested time points
[8] = BisEDT in solution 0.001-30 μM apical, 1, 8, 24 and 48 hours

## CC(S)C(C)S.[Bi] (stereo not drawn) [BisBDT, bismuth-2,3-butanedithiol]
E. coli ATCC 25922 [1]
  MIC 24 hr: 0.5^a
[2]; S. agalactiae MMX 3741, ERY^R CC^R
  MIC: 0.25 µg/mL
[2]; S. agalactiae MMX 3743, ERY^R CC^R
  MIC: 0.25 µg/mL
[2]; S. agalactiae MMX 4077, ERY^R CC^R
  MIC: 0.25 µg/mL
[2]; S. agalactiae MMX 4086, ERY^R CC^R
  MIC: 0.25 µg/mL
[2]; macrolide-resistant S. pyogenes, clindamycin-resistant S. agalactiae
  MIC values (range across isolates): 0.03 to 2 µg/mL

## C1C[S][Bi]([S]CC[S][Bi]2[S]CC[S]2)[S]1 [BisEDT, bismuth-1,2-ethanedithiol]
[3]; IV dosing, biphasic pattern
  duration of initial distribution into tissues: 18 h
[3]; inhalation dosing
  systemic levels lower than in the lung: about 10 ×
[3]; inhalation dosing 100 μg/kg
  blood exposure: sustained, moderate, blood exposure with relatively stable concentrations across time
[3]; oral dosing 250 μg/kg
  blood concentrations: very low, but sustained and measurable
[4]; BisEDT as solid in dextran tablet, 3.33 μg/cm^2, 24 and 48 h
  morphology after exposure: Cells were rounded and opaque at the periphery of inserts
[4]; BisEDT as solid in dextran tablet, 0.033 and 0.33 μg/cm^2
  morphology after exposure: No morphological modifications were observed
[4]; BisEDT as solid in dextran tablet, 33.3 and 333 μg/cm^2, 8, 24 and 48h
  morphology after exposure: Cells were rounded and opaque on the inserts
[4]; BisEDT as solid, 1 μg/cm^2, 8, 24 and 48H exposure
  tissue integrity (TEER): Loss of tissue integrity is observed
[4]; BisEDT as solid, 1 μg/cm^2, 8, 24 and 48h
  cytotoxicity (LDH release): time- and dose-dependent cytotoxicity is observed
[4]; BisEDT as solid, 1 μg/cm^2, 1 hour and 8 hour exposure
  morphology after exposure: no important morphological changes were observed
[4]; [6]
  cytotoxicity (LDH release): No significant effect on LDH release
  tissue integrity (TEER): no significant effect on TEER was observed
[4]; BisEDT as solid, 1 μg/cm^2, 24h exposure
  morphology after exposure: the epithelial cells on 2 inserts out of 3 were dead
[4]; BisEDT as solid, 1 μg/cm^2, 48 h exposure
  morphology after exposure: the epithelial cells on all 3 inserts were dead
[4]; [7]
  cytotoxicity (LDH release): No significant effect on LDH release
  tissue integrity (TEER): No significant effect was observed on TEER
[4]; BisEDT as solid, 1 and 3.33 μg/cm^2, 24 h and 48h exposure
  cytotoxicity (LDH increase, TEER reduction): induces cytotoxicity
[4]; BisEDT as solid, 3.3, 33.3 and 333 μg/cm^2
  cytotoxicity (LDH release): time and dose dependent, cytotoxicity is observed
[4]; BisEDT as solid, 3.33, 33.3 and 333 μg/cm^2, 8, 24 and 48H exposure
  tissue integrity (TEER): Loss of tissue integrity is observed
[4]; BisEDT as solid, 33.3, 333 μg/cm^2
  toxicity (LDH, TEER, morphology): strong toxicity was observed
[4]; BisEDT as solid, all tested doses (0.033-333 μg/cm^2), 1 hour exposure
  tissue integrity (TEER): no significant effect on TEER is observed
[4]; BisEDT in liquid solution 0.001-30 μM, 1, 8, 24 and 48 hours
  local toxicity on the airway epithelium (morphology, TEER, LDH): showed no local toxicity
[4]; [8]
  morphology after exposure: No morphology changes were observed
  percentage of cytotoxicity (LDH release): LDH release was not altered
  tissue integrity (TEER): didn't show significant effect on TEER
[4]; solubilized BisEDT, all time points up to 48 hours (=20.83 μg/mL)
  highest tested concentration, no toxic effects observed: 30 µM
E. coli ATCC 25922 [5]
  QC Range 24 hr: 0.5-4
